Assay results taken from paper PMC4971072, “Chemically Homogenous Compounds with Antagonistic Properties at All α1-Adrenoceptor Subtypes but not β1-Adrenoceptor Attenuate Adrenaline-Induced Arrhythmia in Rats” (Frontiers in Pharmacology, 2016).
Marks after values point to notes of the source that are not given here.

What was measured:
[1] = test system: normal ECG in rats; test: The effect on normal electrocardiogram in rats; assay type: in vivo, rat; details: anesthetized rats, i.p. at ED84
Protocol: The experiment was carried out to exclude the influence of tested compounds on normal ECG. […] The influence on QRS complex, PQ interval, heart rate (RR), and QTc interval was determined.

[2] = biological target: T1, α1B-adrenoceptors (Mus musculus, UniProt P97717); test: Functional bioassay, isolated mouse spleen, noradrenaline contraction; assay type: biochemical; details: noradrenaline as agonist
T1 construct: The spleen was removed from male mice; from tissue; host or cells: isolated mouse spleen
T1 sequence (P97717 1-514): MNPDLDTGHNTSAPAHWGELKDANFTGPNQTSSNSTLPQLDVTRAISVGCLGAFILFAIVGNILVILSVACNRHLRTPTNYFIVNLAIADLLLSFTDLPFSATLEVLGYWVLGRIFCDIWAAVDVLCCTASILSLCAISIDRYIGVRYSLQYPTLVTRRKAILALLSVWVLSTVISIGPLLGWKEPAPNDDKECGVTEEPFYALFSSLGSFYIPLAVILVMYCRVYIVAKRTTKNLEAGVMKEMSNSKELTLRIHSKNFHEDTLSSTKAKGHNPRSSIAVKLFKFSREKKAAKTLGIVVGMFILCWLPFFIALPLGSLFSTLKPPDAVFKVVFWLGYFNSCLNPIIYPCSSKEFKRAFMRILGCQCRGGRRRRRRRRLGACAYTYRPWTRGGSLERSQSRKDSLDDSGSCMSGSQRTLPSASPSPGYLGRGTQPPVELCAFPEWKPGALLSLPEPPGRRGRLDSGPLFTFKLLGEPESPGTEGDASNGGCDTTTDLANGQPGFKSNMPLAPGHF
Protocol: The influence on α1B-adrenoceptors was evaluated using the isolated mouse spleen. The spleen was removed from male mice right after killing the anesthetized animal by cervical dislocation. […] The initial optimal tissues tension was set at 1.0 g. Through the 100 min of equilibration tissues were stimulated with noradrenaline (0.1−10.0 μM) three times with washing out until the contractile response become constant. Two cumulative concentration-response curves to noradrenaline, at an interval of 60 min, were established on each tissue both in the presence and absence of antagonist. The incubation with antagonists went on for 30 min. The experiments were carried out in the constant presence of propranolol (1 μM) to block β-adrenoceptors, and minimize the involvement of these adrenoceptors in the response to noradrenaline.
Data are means ± S.E.M. of at least 4 separate experiments. To establish Hill slopes for the agonist concentration–response curves and calculate EC50 values, curves were fitted to all the data by non-linear regression. The EC50 value in the presence and absence of antagonists was used to ascertain the concentration ratio (CR). Schild analysis was performed.

[3] = test system: blood pressure in normotensive rats; test: Influence on blood pressure in normotensive rats; assay type: in vivo, rat; design: Systolic pressure / Diastolic pressure: unit not given beside the values; details: for Diastolic pressure / Systolic pressure: anesthetized normotensive rats
Protocol: The tested compounds were administered i.p. after 15 min of stabilization period. The compounds were administered at the dose 10 mg/kg.

[4] = lowest hypotensive dose i.p., 5 min
[5] = lowest hypotensive dose i.p., 10 min
[6] = lowest hypotensive dose i.p., 20 min
[7] = lowest hypotensive dose i.p., 30 min
[8] = lowest hypotensive dose i.p., 40 min
[9] = lowest hypotensive dose i.p., 50 min
[10] = lowest hypotensive dose i.p., 60 min
[11] = lowest hypotensive dose i.p., Control (before administration)
[12] = normotensive rats, lowest hypotensive dose i.p., period of significant effect

COc1ccccc1N1CCN(CCOCCOc2c(C)cccc2C)CC1.Cl [HBK-14, 1-[(2,6-dimethylphenoxy)ethoxyethyl]-4-(2-methoxyphenyl)piperazine hydrochloride]
influence on ECG parameters (PQ interval, QRS complex, QTc interval) [1]: did not influence the ECG parameters
Beats/min (ECG) ([1]; 0 min (initial values)): 366.0 ± 10.8 Beats/min
PQ (ECG) ([1]; 0 min (initial values)): 47.1 ± 1.1 ms
QRS (ECG) ([1]; 0 min (initial values)): 26.1 ± 0.7 ms
QT (ECG) ([1]; 0 min (initial values)): 85.8 ± 1.3 ms
QTc (ECG, Bazett) ([1]; 0 min (initial values)): 211.7 ± 3.2 ms
Beats/min (ECG) ([1]; 5 min): 369.8 ± 10.0 Beats/min
PQ (ECG) ([1]; 5 min): 46.0 ± 1.0 ms
QRS (ECG) ([1]; 5 min): 25.8 ± 0.5 ms
QT (ECG) ([1]; 5 min): 85.0 ± 4.1 ms
QTc (ECG, Bazett) ([1]; 5 min): 209.2 ± 8.3 ms
Beats/min (ECG) ([1]; 10 min): 367.0 ± 9.9 Beats/min
PQ (ECG) ([1]; 10 min): 46.3 ± 0.9 ms
QRS (ECG) ([1]; 10 min): 27.6 ± 1.0 ms
QT (ECG) ([1]; 10 min): 88.7 ± 1.9 ms
QTc (ECG, Bazett) ([1]; 10 min): 214.8 ± 5.0 ms
Beats/min (ECG) ([1]; 15 min): 359.8 ± 9.5 Beats/min
PQ (ECG) ([1]; 15 min): 47.5 ± 1.3 ms
QRS (ECG) ([1]; 15 min): 27.0 ± 0.6 ms
QT (ECG) ([1]; 15 min): 89.0 ± 2.4 ms
QTc (ECG, Bazett) ([1]; 15 min): 212.9 ± 5.7 ms
Beats/min (ECG) ([1]; 20 min): 358.4 ± 11.4 Beats/min
PQ (ECG) ([1]; 20 min): 46.3 ± 1.0 ms
QRS (ECG) ([1]; 20 min): 26.3 ± 0.4 ms
QT (ECG) ([1]; 20 min): 88.2 ± 2.9 ms
QTc (ECG, Bazett) ([1]; 20 min): 212.5 ± 4.6 ms
Beats/min (ECG) ([1]; 30 min): 359.8 ± 9.6 Beats/min
PQ (ECG) ([1]; 30 min): 48.8 ± 1.9 ms
QRS (ECG) ([1]; 30 min): 26.7 ± 0.9 ms
QT (ECG) ([1]; 30 min): 89.6 ± 1.7 ms
QTc (ECG, Bazett) ([1]; 30 min): 214.1 ± 5.0 ms
Beats/min (ECG) ([1]; 40 min): 362.6 ± 11.9 Beats/min
PQ (ECG) ([1]; 40 min): 48.2 ± 2.1 ms
QRS (ECG) ([1]; 40 min): 26.1 ± 0.4 ms
QT (ECG) ([1]; 40 min): 89.0 ± 2.1 ms
QTc (ECG, Bazett) ([1]; 40 min): 214.1 ± 5.2 ms
Beats/min (ECG) ([1]; 50 min): 361.6 ± 12.6 Beats/min
PQ (ECG) ([1]; 50 min): 47.3 ± 1.6 ms
QRS (ECG) ([1]; 50 min): 26.7 ± 1.0 ms
QT (ECG) ([1]; 50 min): 87.9 ± 1.2 ms
QTc (ECG, Bazett) ([1]; 50 min): 210.9 ± 5.1 ms
Beats/min (ECG) ([1]; 60 min): 364.6 ± 11.2 Beats/min
PQ (ECG) ([1]; 60 min): 48.4 ± 0.9 ms
QRS (ECG) ([1]; 60 min): 27.5 ± 0.7 ms
QT (ECG) ([1]; 60 min): 89.5 ± 2.4 ms
QTc (ECG, Bazett) ([1]; 60 min): 214.1 ± 4.2 ms
Schild slope ± S.E.M., α1B [2]: 1.03 ± 0.03
Kb ([2]; read-out: pA2 ± S.E.M., α1B (converted)): 20 nM
Diastolic pressure [3, 4]: 105.2 ± 6.1
Systolic pressure [3, 4]: 135.2 ± 7.3
Diastolic pressure [3, 5]: 103.0 ± 5.8
Systolic pressure [3, 5]: 131.2 ± 6.8^c
Diastolic pressure [3, 6]: 97.3 ± 6.0^c
Systolic pressure [3, 6]: 127.3 ± 6.6^c
Diastolic pressure [3, 7]: 95.2 ± 6.1^c
Systolic pressure [3, 7]: 125.3 ± 7.0^c
Diastolic pressure [3, 8]: 92.3 ± 6.2^c
Systolic pressure [3, 8]: 124.2 ± 7.0^c
Diastolic pressure [3, 9]: 94.0 ± 5.8^c
Systolic pressure [3, 9]: 127.3 ± 6.3^c
Diastolic pressure [3, 10]: 98.0 ± 5.1^c
Systolic pressure [3, 10]: 128.2 ± 5.4^c
Diastolic pressure [3, 11]: 106.7 ± 4.3
Systolic pressure [3, 11]: 138.3 ± 6.8
lowest hypotensive dose ([3]; normotensive rats, lowest dose significantly lowering systolic and diastolic blood pressure): 0.625 mg/kg
reduction of diastolic blood pressure [3, 12]: 9−14%
reduction of systolic blood pressure [3, 12]: 5−10%
